Among the test systems are IGROV-1; HCT-15; RXF 393; EKVX; SF-539; M14; NCI-H460; SK-OV-3; SK-MEL-28; SF-268; 786-0; TK-10; HOP-62; HOP-92; NCI-H226; SK-MEL-2; OVCAR-4.
Common to all, as to assay: NCI anticancer screen, dose series, 48 h

SMILES strings stand for the structures.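 All cell lines were grown in 96-well plates and treated with compound for 48 hours. GI50 = concentration required for 50% inhibition of growth.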 Active and inactive are the calls of the source. Cut-off read from the data, not from the text of the source: active = GI50 up to about 1.1 µM and inactive = higher. A value given as a limit tells only on which side of the number the result lay.

Consider `Cn1nc(-c2ccccc2)c(C(=O)/C=C/c2ccc(Cl)cc2)c(N2CCCC2)c1=O`, for which the GI50 in the assay with IGROV-1 is 6.31 µM (inactive); in the assay on HCT-15 it was 3.75 µM; in the assay with RXF 393, 2.63 µM (inactive); in the assay on EKVX, 11.7 µM (inactive); in the assay on SF-539, 3.55 µM (inactive); with M14, 5.33 µM (inactive). The GI50 was 3.86 µM (inactive) with NCI-H460; 4.99 µM (inactive) in the assay on SK-OV-3; 3.76 µM (inactive) in the assay on SK-MEL-28; 4.61 µM (inactive) in the assay on SF-268; 3.13 µM (inactive) in the assay with 786-0; 11.6 µM (inactive) in the assay on TK-10. Besides, the GI50 with HOP-62 is 2.23 µM (inactive); in the assay on HOP-92, 1.67 µM (inactive).

For `C=CN1C(=O)[C@H](Oc2ccccc2)[C@@H]1c1ccccc1`, the GI50 in the assay with IGROV-1 is > 100 µM (inactive); with HCT-15, 41.1 µM; with NCI-H226, 44.4 µM (inactive); with RXF 393, 17.8 µM (inactive); in the assay with EKVX, 47.8 µM (inactive); in the assay on SF-539 it was 16.2 µM (inactive). Further, the GI50 in the assay with M14 is 33.1 µM (inactive); in the assay on NCI-H460, 30.3 µM (inactive); in the assay with SK-OV-3 it was 32.1 µM (inactive); with SK-MEL-28 it was 36.4 µM (inactive); in the assay on SF-268 it was 37.2 µM (inactive); in the assay with 786-0, 18.9 µM (inactive). The GI50 in the assay on TK-10 was 37.2 µM (inactive); with HOP-62, 32.7 µM (inactive); with SK-MEL-2 it was 12.9 µM (inactive).

`CCN(CC)c1ccc(/N=N/c2ccc(-c3nc4cccnc4s3)cc2)cc1`: the GI50 in the assay with IGROV-1 is > 100 µM (inactive); in the assay with NCI-H226, > 100 µM (inactive); in the assay on EKVX it was > 100 µM (inactive); in the assay with M14, > 100 µM (inactive); in the assay on OVCAR-4 it was 43.3 µM (inactive); in the assay with NCI-H460 it was 60.3 µM (inactive). Besides, the GI50 in the assay with SK-OV-3 is > 100 µM (inactive); in the assay with SK-MEL-28 it was > 100 µM (inactive); with SF-268, 57.5 µM (inactive); with 786-0, 45.4 µM (inactive); with TK-10, > 100 µM (inactive); in the assay on HOP-62, > 100 µM (inactive). The GI50 in the assay with SK-MEL-2 and in the assay on HOP-92 was > 100 µM (inactive) throughout.

Take `CN(C)CC/C(=N\Nc1ccc(Cl)cc1Cl)c1ccccc1`: the GI50 with IGROV-1 is 10.1 µM (inactive); with HCT-15, 12.4 µM; with RXF 393, 7.96 µM (inactive); with EKVX, 20.6 µM (inactive); with SF-539 it was 18.1 µM (inactive); in the assay with M14, 15.5 µM (inactive). The GI50 in the assay on OVCAR-4 was > 10 µM (inactive); with NCI-H460, 13.8 µM (inactive); with SK-OV-3 it was 12.3 µM (inactive); in the assay with SK-MEL-28 it was 15.2 µM (inactive); in the assay on 786-0, 13.7 µM (inactive); in the assay on TK-10, 15.1 µM (inactive). Also, the GI50 is 13.9 µM (inactive) in the assay with HOP-62 and 14.5 µM (inactive) in the assay on SK-MEL-2.

As to `Nc1ncnc2c1ncn2C1OC(CSCc2ccc(Cl)cc2)C(O)C1O` (centres undefined), the GI50 with IGROV-1 was 89.3 µM (inactive); in the assay with HCT-15, 12 µM; with RXF 393, 21.2 µM (inactive); in the assay with EKVX, 81.7 µM (inactive); with SF-539, 29.4 µM (inactive); in the assay on M14 it was 17.1 µM (inactive). Besides, the GI50 in the assay with OVCAR-4 was 35.6 µM (inactive); in the assay with NCI-H460 it was > 100 µM (inactive); in the assay with SK-OV-3 it was > 100 µM (inactive); in the assay with SF-268, 40.1 µM (inactive); in the assay with 786-0, 34.1 µM (inactive); in the assay on TK-10, 55 µM (inactive). Besides, the GI50 in the assay with HOP-62 was 17 µM (inactive); with SK-MEL-2 it was 25.5 µM (inactive); in the assay on HOP-92, 4.18 µM (inactive).

For the compound `COC(CC1(OC)OC(=O)C=C1N)OC` (centres undefined), the GI50 is > 100 µM (inactive) in the assay on IGROV-1; greater than 100 µM in the assay on HCT-15; > 100 µM (inactive) with NCI-H226; > 100 µM (inactive) in the assay on EKVX; > 100 µM (inactive) in the assay with SF-539; > 100 µM (inactive) in the assay with M14. The GI50 in the assay with OVCAR-4, in the assay on NCI-H460, in the assay with SK-OV-3, in the assay on SK-MEL-28, with SF-268 and in the assay on 786-0 was > 100 µM (inactive) each time. Moreover, the GI50 in the assay on TK-10, with HOP-62, with SK-MEL-2 and in the assay on HOP-92 was > 100 µM (inactive) throughout.

For the compound `O=C1c2ccccc2C(=O)N1C/C=N/NS(=O)(=O)c1cccc([N+](=O)[O-])c1`, the GI50 in the assay with IGROV-1 is > 100 µM (inactive); in the assay on HCT-15, greater than 100 µM; with RXF 393, > 100 µM (inactive); with EKVX, > 100 µM (inactive); in the assay with SF-539, > 100 µM (inactive); with M14, > 100 µM (inactive). Further, the GI50 in the assay with OVCAR-4, with NCI-H460, in the assay with SF-268, in the assay with 786-0, with TK-10 and in the assay with HOP-62 was > 100 µM (inactive) in each case. In the assay with SK-MEL-2, the GI50 was > 100 µM (inactive).

Turning to `CCC(=O)c1c(NOC2OC(COC(C)=O)C(OC(C)=O)C(OC(C)=O)C2OC(C)=O)nc(OC)n(C)c1=O` (centres undefined), the GI50 in the assay with IGROV-1 is > 100 µM (inactive); with HCT-15 it was greater than 100 µM; in the assay on NCI-H226, 50.1 µM (inactive); in the assay on RXF 393 it was > 100 µM (inactive); in the assay on EKVX it was > 100 µM (inactive); in the assay on SF-539, 69.2 µM (inactive). The GI50 with M14, with OVCAR-4, in the assay with NCI-H460, with SK-MEL-28, in the assay with SF-268 and in the assay with 786-0 was > 100 µM (inactive) in each case. Moreover, the GI50 with TK-10, with HOP-62 and with SK-MEL-2 was > 100 µM (inactive) in each case.

Take `CC1=CC(O)(c2ccc(-c3ccccc3Cl)cc2)OC1=O` (centres undefined): the GI50 in the assay on IGROV-1 is > 100 µM (inactive); in the assay with HCT-15, greater than 100 µM; with RXF 393, > 100 µM (inactive); in the assay on EKVX it was > 100 µM (inactive); in the assay on SF-539, > 100 µM (inactive); in the assay on M14 it was > 100 µM (inactive). Further, the GI50 with OVCAR-4, with NCI-H460, in the assay with SK-OV-3, with SK-MEL-28, in the assay with SF-268 and with 786-0 was > 100 µM (inactive) throughout. The GI50 in the assay with TK-10, in the assay with HOP-62, in the assay with SK-MEL-2 and in the assay on HOP-92 was > 100 µM (inactive) in each case.

As to `CCOC(=O)C1=C(c2ccccc2)NC(c2ccccc2)=C(C(=O)OCC)c2c1c(=O)cc[nH]c2=O`, the GI50 was > 100 µM (inactive) with IGROV-1; greater than 100 µM in the assay on HCT-15; > 100 µM (inactive) in the assay with NCI-H226; > 100 µM (inactive) with SF-539; > 100 µM (inactive) in the assay on M14; 92.3 µM (inactive) in the assay with OVCAR-4. The GI50 in the assay with NCI-H460 is > 100 µM (inactive); in the assay with SK-OV-3, > 100 µM (inactive); with SK-MEL-28, 66.1 µM (inactive); with SF-268 it was > 100 µM (inactive); with 786-0, > 100 µM (inactive); in the assay with TK-10, > 100 µM (inactive). Moreover, the GI50 is > 100 µM (inactive) with HOP-62, > 100 µM (inactive) in the assay with SK-MEL-2 and 71.6 µM (inactive) in the assay with HOP-92.

For `CC(=O)CC(=O)CCC(=O)Nc1cccc(C(F)(F)F)c1`, the GI50 in the assay with IGROV-1 was > 100 µM (inactive); in the assay on HCT-15 it was greater than 100 µM; in the assay with NCI-H226, > 100 µM (inactive); with EKVX, > 100 µM (inactive); in the assay on SF-539, > 100 µM (inactive); with M14 it was > 100 µM (inactive). The GI50 in the assay on OVCAR-4, with NCI-H460, with SK-OV-3, in the assay on SF-268, in the assay with 786-0 and in the assay with TK-10 was > 100 µM (inactive) throughout. The GI50 in the assay with HOP-62, with SK-MEL-2 and in the assay with HOP-92 was > 100 µM (inactive) in each case.

For `N#C/C(=C/c1cccc2ccccc12)C(=O)c1ccccc1`, the GI50 in the assay on IGROV-1 is 24.3 µM (inactive); in the assay with HCT-15, 19 µM; in the assay with NCI-H226, 17.7 µM (inactive); in the assay with EKVX, > 10 µM (inactive); with SF-539, 17.7 µM (inactive); in the assay with M14, 16.9 µM (inactive). In addition, the GI50 with OVCAR-4 is > 100 µM (inactive); with NCI-H460, 27.5 µM (inactive); with SK-OV-3 it was > 100 µM (inactive); in the assay with SK-MEL-28, 13.9 µM (inactive); in the assay on 786-0, 16.3 µM (inactive); in the assay with TK-10, 35.4 µM (inactive). Besides, the GI50 in the assay with HOP-62 was 18.3 µM (inactive); with SK-MEL-2 it was 18.9 µM (inactive).

For the compound `CCCCCCC(O)C/C=C/CCCCCC/C(C(=O)OC)=C(/O)C(=O)OCC` (centres undefined), the GI50 with IGROV-1 was > 100 µM (inactive); with HCT-15, greater than 100 µM; with NCI-H226, > 100 µM (inactive); with EKVX, > 100 µM (inactive); in the assay with SF-539 it was > 100 µM (inactive); in the assay with M14, > 100 µM (inactive). Further, the GI50 in the assay with OVCAR-4, with NCI-H460, in the assay with SK-OV-3, in the assay with SK-MEL-28, in the assay on SF-268 and in the assay on 786-0 was > 100 µM (inactive) in each case. Further, the GI50 in the assay on TK-10, with HOP-62, in the assay with SK-MEL-2 and in the assay on HOP-92 was > 100 µM (inactive) in each case.

For the compound `O=c1cccccc1O.O=c1cccccc1O.O=c1cccccc1O.[SiH4]`, the GI50 in the assay with IGROV-1 is 12.8 µM (inactive); with EKVX it was < 0.01 µM (active); with SF-539, 18.3 µM (inactive); in the assay with M14, 33.5 µM (inactive); with OVCAR-4, 11.9 µM (inactive); in the assay with SK-OV-3, 31.8 µM (inactive). The GI50 is 55.1 µM (inactive) in the assay on SK-MEL-28; 42.9 µM (inactive) with SF-268; 33 µM (inactive) in the assay with 786-0; 74 µM (inactive) with TK-10; 28.4 µM (inactive) in the assay on HOP-62; 37.9 µM (inactive) with HOP-92.

Values taken from ChEMBL document CHEMBL1201862, “PubChem BioAssay data set” (2004).
